From patent publication US20090093468A1, “Peptide Deformylase Inhibitors” (priority 2004, published 2009)

How the values were obtained:
[1] = biological target: bacterial PDF (peptide deformylase), enzyme from E. coli (Escherichia coli, UniProt P0A6K3); assay: Bacterial peptide deformylase (PDF) assay, enzyme from E. coli; format: biochemical
Experimental: (§1) The IC50 value of a compound of the invention as a bacterial PDF inhibitor was determined using the following assay.
(§2) Assay buffer (pH 7.2): 0.1 M MOPS pH was adjusted to 7.2 with NaOH, containing 0.25 M NaCl, 100 microgram/mL catalase and 1 mg/mL BSA.
(§3) Enzyme mix: 670 ng/mL of enzyme (to finally have 50 ng of enzyme per well).
(§4) Substrate: 10 mM f-Met-Ala was made up from 200 mM f-Met-Ala in methanol with assay buffer.
(§5) TNBS solution: Freshly dilute 1 M TNBS stock solution to 1:10 with water.
(§6) Buffer C: 0.5 M borate buffer adjusted to pH 9.5 with NaOH.
(§7) Buffer D: 0.2 ml of freshly prepared 0.5 M Na2SO3 was mixed with 9.8 mL of 0.5M NaH2PO4.
(§8) Inhibitor solution: 2 mM Sodium 4-(hydroxymercurio) benzoate in assay buffer.
(§9) The assay was performed in a 96 Microtiter plate containing test compound. To each well containing test compound mix was added 75 microliter of enzyme mix from E. coli followed, by the addition of 25 microliter of substrate mix. The resulting mix was incubated for 30 minutes at room temperature with shaking. TNBS solution (50 microliter/well) was added and the resulting mixture was incubated for 15 minutes under shaking. Buffer C was then added (20 microliter/well). After incubating at room temperature for 15 minutes under shaking, buffer D was added (50 microliter/well). The optical […] was then measured at 420 nm, thereby determining the IC50 value.

[2] = biological target: T1, bacterial PDF (peptide deformylase), enzyme from S. aureus (Staphylococcus aureus, UniProt P68826); assay: Bacterial peptide deformylase (PDF) assay, enzyme from S. aureus; format: biochemical; conditions: PDF enzyme from S. aureus; substrate f-Met-Ala; TNBS readout at 420 nm; read-out: IC50 (enzyme from S. aureus)
T1 sequence (P68826 1-183): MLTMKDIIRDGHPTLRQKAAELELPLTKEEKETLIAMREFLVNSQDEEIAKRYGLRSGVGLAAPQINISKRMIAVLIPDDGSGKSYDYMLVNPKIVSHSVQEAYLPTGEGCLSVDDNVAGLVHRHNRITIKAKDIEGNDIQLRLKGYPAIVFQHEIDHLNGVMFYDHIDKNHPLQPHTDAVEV
Experimental: as §1, §2, §3, §4, §5, §6, §7, §8, §9
The assay was repeated using enzyme mix from S. aureus.

Sequence of bacterial PDF (peptide deformylase), enzyme from E. coli (P0A6K3 whole entry): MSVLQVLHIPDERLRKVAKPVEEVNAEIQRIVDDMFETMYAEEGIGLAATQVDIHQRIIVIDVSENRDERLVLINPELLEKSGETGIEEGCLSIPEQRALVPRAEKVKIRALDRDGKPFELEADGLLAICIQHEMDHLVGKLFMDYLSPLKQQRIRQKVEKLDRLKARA

Structure (SMILES): CCN1CC(CC(=O)NO)S(=O)(=O)c2ccc(C(=O)NCc3ccc(Br)cc3)cc21 (centres unmarked) [Example 17, 4-Ethyl-2-hydroxycarbamoylmethyl-1,1-dioxo-1,2,3,4-tetrahydro-1λ^6-benzo[1,4]-thiazine-6-carboxylic acid 4-bromo-benzylamide]
- IC50 [1]: 1.5 µM
- IC50 [2]: 3.4 µM

Structure (SMILES): CCCCN1CC(CC(=O)NO)S(=O)(=O)c2ccccc21 (centres unmarked) [Example 8, 2-(4-Butyl-1,1-dioxo-1,2,3,4-tetrahydro-1λ^6-benzo[1,4]thiazin-2-yl)-N-hydroxy-acetamide]
- IC50 [1]: 8.8 µM
- IC50 [2]: 8.1 µM

Structure (SMILES): CCN1CC(CC(=O)NO)S(=O)(=O)c2ccc(C(=O)NCc3cccc(C(F)(F)F)c3)cc21 (centres unmarked) [Example 24, 4-Ethyl-2-hydroxycarbamoylmethyl-1,1-dioxo-1,2,3,4-tetrahydro-1λ^6-benzo[1,4]thiazine-6-carboxylic acid 3-trifluoromethyl-benzylamide]
- IC50 [1]: 2 µM
- IC50 [2]: 8.3 µM

Structure (SMILES): CCN1CC(CC(=O)NO)S(=O)(=O)c2ccc(C(=O)N3CCN(C)CC3)cc21 (centres unmarked) [Example 32, 2-[4-Ethyl-6-(4-methyl-piperazine-1-carbonyl)-1,1-dioxo-1,2,3,4-tetrahydro-1λ^6-benzo[1,4]thiazin-2-yl]-N-hydroxy-acetamide]
- IC50 [1]: > 200 µM
- IC50 [2]: 128 µM

Structure (SMILES): CCN1CC(CC(=O)NO)S(=O)(=O)c2ccc(C(=O)NCc3cccc([N+](=O)[O-])c3)cc21 (centres unmarked) [Example 19, 4-Ethyl-2-hydroxycarbamoylmethyl-1,1-dioxo-1,2,3,4-tetrahydro-1λ^6-benzo[1,4]thiazine-6-carboxylic acid 3-nitro-benzylamide]
- IC50 [1]: 3.3 µM
- IC50 [2]: 11.9 µM

Structure (SMILES): CCN1CC(CC(=O)NO)S(=O)(=O)c2ccc(C(=O)NCc3ccc(F)cc3)cc21 (centres unmarked) [Example 14, 4-Ethyl-2-hydroxycarbamoylmethyl-1,1-dioxo-1,2,3,4-tetrahydro-1λ^6-benzo[1,4]thiazine-6-carboxylic acid 4-fluoro-benzylamide]
- IC50 [1]: 10.5 µM
- IC50 [2]: 10 µM

Structure (SMILES): CCCCN1CC(CC(=O)NO)Sc2ccccc21 (centres unmarked) [Example 7, 2-(4-Butyl-3,4-dihydro-2H-benzo[1,4]thiazin-2-yl)-N-hydroxy-acetamide]
- IC50 [1]: 22 µM
- IC50 [2]: 35.5 µM

Structure (SMILES): CCCN1CC(CC(=O)NO)Sc2ccccc21 (centres unmarked) [Example 5, N-Hydroxy-2-(4-propyl-3,4-dihydro-2H-benzo[1,4]thiazin-2-yl)-acetamide]
- IC50 [1]: 7 µM
- IC50 [2]: 8.5 µM

Structure (SMILES): CCN1CC(CC(=O)NO)S(=O)(=O)c2ccc(C(=O)NCc3ccc(OC)cc3)cc21 (centres unmarked) [Example 23, 4-Ethyl-2-hydroxycarbamoylmethyl-1,1-dioxo-1,2,3,4-tetrahydro-1λ^6-benzo[1,4]thiazine-6-carboxylic acid 4-methoxy-benzylamide]
- IC50 [1]: 4.9 µM
- IC50 [2]: 13.1 µM

Structure (SMILES): O=C(CC1CN(CC2CC2)c2ccccc2S1(=O)=O)NO (centres unmarked) [Example 35]
- IC50 [1]: 2.1 µM
- IC50 [2]: 4.8 µM
